Target: SARS-CoV 3CL^pro (Severe acute respiratory syndrome coronavirus, UniProt P0C6X7)
Type: biochemical

| SMILES | Inhibition type |
| --- | --- |
| O=c1cc(-c2ccc(O)c(-c3c(O)cc(O)c4c(=O)cc(-c5ccc(O)cc5)oc34)c2)oc2cc(O)cc(O)c12 [Compound 9, amentoflavone] | Noncompetitive (13.8 ± 1.5) |
| COc1ccc(-c2cc(=O)c3c(O)cc(O)cc3o2)cc1-c1c(O)cc(O)c2c(=O)cc(-c3ccc(O)cc3)oc12 [Compound 10, bilobetin] | Noncompetitive (80.4 ± 4.0) |
| COc1cc(O)c2c(=O)cc(-c3ccc(OC)c(-c4c(O)cc(O)c5c(=O)cc(-c6ccc(O)cc6)oc45)c3)oc2c1 [Compound 11, ginkgetin] | Noncompetitive (30.2 ± 2.6) |
| COc1ccc(-c2cc(=O)c3c(O)cc(O)c(-c4cc(-c5cc(=O)c6c(O)cc(OC)cc6o5)ccc4OC)c3o2)cc1 [Compound 12, sciadopitysin] | Noncompetitive (35.6 ± 1.1) |

From PMC7126309 (Bioorganic & Medicinal Chemistry, 2010)
